Results from ChEMBL document CHEMBL4130410, “Novel rhynchophylline analogues as microvascular relaxation agents for the treatment of microvascular dysfunction caused by diabetes” (Eur J Med Chem, 2017).
Calls of active or inactive are those of the source. The rule behind the calls is not given here.

Experiments:
Rattus norvegicus [1] = test: (§1) In vivo vasorelaxant activity in streptozotocin-induced type-1 diabetic Sprague-Dawley rat model assessed as protection against eNOS loss in vessels at 20 mg/kg, po via gavage for 1 week starting from 8 week post diabetic induction by hematoxylin and eosin staining based assay; assay type: functional, organism-based
Thoracic aorta [2] = test: Potency index, ratio of rhynchophylline IC50 to compound IC50 for vasorelaxant activity in rat thoracic aorta; assay type: functional
Mesenteric artery [3] = test: Vasorelaxant activity in Sprague-Dawley rat endothelium denuded mesentric artery rings assessed as inhibition of KCl-induced contraction; assay type: functional, tissue-based
Mesenteric artery [4] = test: Vasorelaxant activity in Sprague-Dawley rat endothelium intact mesentric artery rings assessed as inhibition of phenylephrine-induced contraction in presence of non-selective calcium-activated K+ channel blocker TEA/VGCC blocker nifedipine; assay type: functional, tissue-based
Rattus norvegicus [5] = test: In vivo vasorelaxant activity in streptozotocin-induced type-1 diabetic Sprague-Dawley rat model assessed as increase in acetylcholine-induced endothelium dependent relaxation in mesentric artery rings at 20 mg/kg, po via gavage for 1 week starting from 8 week post diabetic induction; assay type: functional, organism-based
Mesenteric artery [6] = test: Vasorelaxant activity in Sprague-Dawley rat endothelium intact mesentric artery rings assessed as inhibition of phenylephrine-induced contraction; assay type: functional, tissue-based
Rattus norvegicus [7] = test: In vivo vasorelaxant activity in streptozotocin-induced type-1 diabetic Sprague-Dawley rat model assessed as inhibition of phenylephrine-induced contraction in mesentric artery rings at 20 mg/kg, po via gavage for 1 week starting from 8 week post diabetic induction; assay type: functional, organism-based
Mesenteric artery [8] = test: Vasorelaxant activity in mesentric artery rings isolated from Sprague-Dawley rat assessed as inhibition of phenylephrine-induced contraction in presence of eNOS inhibitor L-NAME; assay type: functional, tissue-based
Mesenteric artery [9] = test: Vasorelaxant activity in endothelium intact mesentric artery rings isolated from streptozotocin-induced type-1 diabetic Sprague-Dawley rat model assessed as inhibition of phenylephrine-induced contraction; assay type: functional, tissue-based
Thoracic aorta [10] = test: Vasorelaxant activity in rat thoracic aorta; assay type: functional, tissue-based
Mesenteric artery [11] = test: Vasorelaxant activity in endothelium intact mesentric artery rings isolated from streptozotocin-induced type-1 diabetic Sprague-Dawley rat model assessed as inhibition of phenylephrine-induced contraction in presence of eNOS inhibitor L-NAME; assay type: functional, tissue-based
Mesenteric artery [12] = test: Vasorelaxant activity in Sprague-Dawley rat endothelium intact mesentric artery rings assessed as inhibition of KCl-induced contraction; assay type: functional, tissue-based
Rattus norvegicus [13] = test: as §1, with “vessels by measuring increase in eNOS protein expression” for “vessels”, “Western blot method” for “hematoxylin and eosin staining based assay”; assay type: functional, organism-based
Mesenteric artery [14] = test: Vasorelaxant activity in Sprague-Dawley rat endothelium denuded mesentric artery rings assessed as inhibition of phenylephrine-induced contraction; assay type: functional, tissue-based

| IC50 (Mesenteric artery [6]) [µM] | IC50 (Thoracic aorta [10]) [µM] | IC50 (Mesenteric artery [14]) [µM] | Structure (SMILES) | Activity (Rattus norvegicus [1]) | Ratio IC50 (Thoracic aorta [2]) | inhibition (Mesenteric artery [3]) | inhibition (Mesenteric artery [4]) | Activity (Rattus norvegicus [5]) | Emax (Mesenteric artery [6]) [%] | inhibition (Mesenteric artery [6]) | inhibition (Rattus norvegicus [7]) | inhibition (Mesenteric artery [8]) | inhibition (Mesenteric artery [9]) | inhibition (Mesenteric artery [11]) | inhibition (Mesenteric artery [12]) | Activity (Rattus norvegicus [13]) | Emax (Mesenteric artery [14]) [%] |
| --- | --- | --- | --- | --- | --- | --- | --- | --- | --- | --- | --- | --- | --- | --- | --- | --- | --- |
| 0.499 | 5.89 | 1.2 | COC(=O)CC1CC2c3[nH]c4ccccc4c3CCN2CC1CCO (racemic) | Active | <=30 | inactive | Active | Active | 99.9 | Dose-dependent effect | Active | inactive | Active | inactive | inactive | Active | 99.7 |
| 7.79 | 3.69 | 49.9 | COC(=O)C[C@@H]1C[C@H]2c3[nH]c4ccccc4c3CCN2C[C@@H]1CCO |  | <=30 | inactive | Active |  | 99.1 | Dose-dependent effect |  | inactive |  | inactive | inactive |  | 86.3 |
| 0.092 | 0.199 | 5.15 | COC(=O)C[C@H]1C[C@@H]2c3[nH]c4ccccc4c3CCN2C[C@H]1CCO |  | <=30 | inactive | inactive |  | 100 | Dose-dependent effect |  | inactive | Active | inactive | inactive |  | 101 |

| Structure (SMILES) | IC50 (Mesenteric artery [6]) [µM] | IC50 (Thoracic aorta [10]) [µM] | IC50 (Mesenteric artery [14]) [µM] | Activity (Rattus norvegicus [1]) | Ratio IC50 (Thoracic aorta [2]) | inhibition (Mesenteric artery [3]) | inhibition (Mesenteric artery [4]) | Activity (Rattus norvegicus [5]) | Emax (Mesenteric artery [6]) [%] | inhibition (Mesenteric artery [6]) | inhibition (Rattus norvegicus [7]) | inhibition (Mesenteric artery [8]) | inhibition (Mesenteric artery [9]) | inhibition (Mesenteric artery [11]) | inhibition (Mesenteric artery [12]) | Activity (Rattus norvegicus [13]) | Emax (Mesenteric artery [14]) [%] |
| --- | --- | --- | --- | --- | --- | --- | --- | --- | --- | --- | --- | --- | --- | --- | --- | --- | --- |
| CC[C@H]1CN2CC[C@]3(C(=O)Nc4ccccc43)[C@@H]2C[C@@H]1/C(=C/OC)C(=O)OC |  | 174 |  |  |  |  |  |  |  |  |  |  |  |  |  |  |  |
